Source: US6673827B1, “Methods of treating fungal infections with inhibitors of NAD synthetase enzyme” (priority 1999, dated 2004)
Converted amounts (≈) assume the structure as drawn. “And” between values parts separate entries of the source, which are not always exact repeats. Equal entries are not always repeated. Where two headings read alike, the source gives them in different places.

Legend:
Type in all cases: cell-based
[1] = test system: Candida tropicalis ATCC 750; experiment: In vitro study of inhibition of growth and lethality against yeast (MIC/MLC susceptibility test), isolate A; conditions: for Minimum Lethal Concentration (MLC), A: Table 4B summary, isolate A
[2] = test system: Candida albicans KJP-000531594; experiment: In vitro study of inhibition of growth and lethality against yeast (MIC/MLC susceptibility test), isolate C; conditions: for Minimum Lethal Concentration (MLC), C: Table 4B summary, isolate C; for Minimum Inhibitory Conc. (MIC), 24 hr. / Minimum Inhibitory Conc. (MIC), 48 hr. / MIC: Candida albicans
[3] = test system: Candida tropicalis ATCC 28707; experiment: In vitro study of inhibition of growth and lethality against yeast (MIC/MLC susceptibility test), isolate B; conditions: for Minimum Lethal Concentration (MLC), B: Table 4B summary, isolate B
[4] = test system: Cryptococcus neoformans DLB-1027594CNC; experiment: In vitro study of inhibition of growth and lethality against yeast (MIC/MLC susceptibility test), isolate G; conditions: for Minimum Lethal Concentration (MLC), G: Table 4B summary, isolate G; for MIC: DLB1027594CNC
[5] = test system: Torulopsis glabrata ERH-BC9938274; experiment: In vitro study of inhibition of growth and lethality against yeast (MIC/MLC susceptibility test), isolate F; conditions: for Minimum Lethal Concentration (MLC), F: Table 4B summary, isolate F; for Minimum Inhibitory Conc. (MIC), 24 hr.: read at 24 hr; for MIC: Nakaseomyces glabratus
[6] = test system: Cryptococcus neoformans SLP-BC0012854; experiment: In vitro study of inhibition of growth and lethality against yeast (MIC/MLC susceptibility test), isolate H; conditions: for Minimum Lethal Concentration (MLC), H: Table 4B summary, isolate H
[7] = test system: Candida albicans LH-000664533; experiment: In vitro study of inhibition of growth and lethality against yeast (MIC/MLC susceptibility test), isolate D; conditions: for Minimum Lethal Concentration (MLC), D: Table 4B summary, isolate D
[8] = test system: Torulopsis glabrata JHC-BC9951635; experiment: In vitro study of inhibition of growth and lethality against yeast (MIC/MLC susceptibility test), isolate E; conditions: for Minimum Lethal Concentration (MLC), E: Table 4B summary, isolate E; for Minimum Inhibitory Conc. (MIC), 24 hr. / Minimum Inhibitory Conc. (MIC), 48 hr. / MIC: isolate assigned by line order; for MIC: Nakaseomyces glabratus
[9] = 1st pair of lines, read at 24 hr, isolate not given, assigned by line order and MLC of Table 4B
[10] = 1st pair of lines, read at 48 hr, isolate assigned by line order
[11] = Cryptococcus neoformans, 1st pair of lines, read at 72 hr, isolate assigned by line order
[12] = Torulopsis glabrata, 1st pair of lines, isolate assigned by line order
[13] = Torulopsis glabrata, 2nd pair of lines, read at 24 hr
[14] = Torulopsis glabrata, 2nd pair of lines, read at 48 hr

Fc1cc(F)c2[nH]c(CCCC[n+]3cccc4ccccc43)cc2c1 [Compound 0409]
Minimum Lethal Concentration (MLC), A [1]: 1 µg/mL
Minimum Lethal Concentration (MLC), C [2]: 1 µg/mL
Minimum Lethal Concentration (MLC), B [3]: 0.5 µg/mL
Minimum Lethal Concentration (MLC), G [4]: 2 µg/mL
Minimum Lethal Concentration (MLC), F [5]: 2 µg/mL
Minimum Lethal Concentration (MLC), H [6]: 2 µg/mL
Minimum Lethal Concentration (MLC), D [7]: 1 µg/mL
Minimum Lethal Concentration (MLC), E [8]: 2 µg/mL

C[C@@H]1[C@H](O)[C@@H](C)/C=C/C=C/C=C/C=C/C=C/C=C/C=C/[C@H](O[C@@H]2O[C@H](C)[C@@H](O)[C@H](N)[C@@H]2O)C[C@@H]2O[C@](O)(C[C@@H](O)C[C@@H](O)[C@H](O)CC[C@@H](O)C[C@@H](O)CC(=O)O[C@H]1C)C[C@H](O)[C@H]2C(=O)O [Amphotericin B]
Minimum Inhibitory Conc. (MIC), 24 hr. ([1]; Candida tropicalis, 2nd pair of lines, read at 24 hr, isolate assigned by line order): 0.5 µg/mL
Minimum Inhibitory Conc. (MIC), 48 hr. ([1]; Candida tropicalis, 2nd pair of lines, read at 48 hr, isolate assigned by line order): 0.5 µg/mL and 1 µg/mL
Minimum Inhibitory Conc. (MIC), 24 hr. [2, 9]: 0.5 µg/mL
Minimum Inhibitory Conc. (MIC), 48 hr. [2, 10]: 1 µg/mL
Minimum Inhibitory Conc. (MIC), 24 hr. ([3]; Candida tropicalis, 1st pair of lines, read at 24 hr, isolate assigned by line order): 2 µg/mL
Minimum Inhibitory Conc. (MIC), 48 hr. ([3]; Candida tropicalis, 1st pair of lines, read at 48 hr, isolate assigned by line order): 4 µg/mL
Minimum Inhibitory Conc. (MIC), 48 hr. ([4]; Cryptococcus neoformans, 1st pair of lines, read at 48 hr, isolate assigned by line order): 0.25 µg/mL
Minimum Inhibitory Conc. (MIC), 72 hr. [4, 11]: 0.25 µg/mL
Minimum Inhibitory Conc. (MIC), 24 hr. [5, 12]: 0.5 µg/mL
Minimum Inhibitory Conc. (MIC), 48 hr. ([5]; Torulopsis glabrata, 1st pair of lines, read at 48 hr, isolate assigned by line order): 1 µg/mL
Minimum Inhibitory Conc. (MIC), 48 hr. ([6]; Cryptococcus neoformans, 2nd pair of lines, read at 48 hr, isolate assigned by line order): 0.5 µg/mL and 0.25 µg/mL
Minimum Inhibitory Conc. (MIC), 24 hr. ([7]; Candida albicans, 2nd pair of lines, read at 24 hr, isolate assigned by line order): 0.5 µg/mL
Minimum Inhibitory Conc. (MIC), 48 hr. ([7]; Candida albicans, 2nd pair of lines, read at 48 hr, isolate assigned by line order): 0.5 µg/mL
Minimum Inhibitory Conc. (MIC), 24 hr. [8, 13]: 0.5 µg/mL
Minimum Inhibitory Conc. (MIC), 48 hr. [8, 14]: 1 µg/mL and 0.5 µg/mL

COC(=O)c1cc2cc(OCc3ccccc3)ccc2n1CCCCCCCCC[n+]1ccccc1 [Compound 230]
MIC ([1]; Candida tropicalis, ATCC750, 24 h, read-out: Minimum Inhibitory Conc. (MIC), 24 hr.): 1 µg/mL
MIC ([1]; Candida tropicalis, ATCC750, 48 h, read-out: Minimum Inhibitory Conc. (MIC), 48 hr.): 1 µg/mL
Minimum Inhibitory Conc. (MIC), 24 hr. [2, 9]: 0.5 µg/mL
MIC ([2]; KJP000531594, 24 h, read-out: Minimum Inhibitory Conc. (MIC), 24 hr., Candida albicans, 1st pair of lines, read at 24 hr, isolate not given, assigned by line order and MLC of Table 4B): 1 µg/mL
MIC ([2]; KJP000531594, 48 h, read-out: Minimum Inhibitory Conc. (MIC), 48 hr., Candida albicans, 1st pair of lines, read at 48 hr, isolate assigned by line order): 1 µg/mL
MIC ([3]; Candida tropicalis, ATCC28707, 24 h, read-out: Minimum Inhibitory Conc. (MIC), 24 hr.): 0.5 µg/mL
MIC ([3]; Candida tropicalis, ATCC28707, 48 h, read-out: Minimum Inhibitory Conc. (MIC), 48 hr.): 0.5 µg/mL
MIC ([4]; Cryptococcus neoformans, 48 h, read-out: Minimum Inhibitory Conc. (MIC), 48 hr.): 1 µg/mL
MIC ([4]; Cryptococcus neoformans, 72 h, read-out: Minimum Inhibitory Conc. (MIC), 72 hr.): 1 µg/mL
MIC ([5]; ERHBC9938274, 24 h, read-out: Minimum Inhibitory Conc. (MIC), 24 hr., Torulopsis glabrata, 1st pair of lines, read at 24 hr, isolate assigned by line order): 1 µg/mL
MIC ([5]; ERHBC9938274, 48 h, read-out: Minimum Inhibitory Conc. (MIC), 48 hr., Torulopsis glabrata, 1st pair of lines, read at 48 hr, isolate assigned by line order): 2 µg/mL
Minimum Inhibitory Conc. (MIC), 24 hr. [5, 12]: 2 µg/mL
MIC ([6]; Cryptococcus neoformans, SLPBC0012854, 48 h, read-out: Minimum Inhibitory Conc. (MIC), 48 hr.): 1 µg/mL
MIC ([6]; Cryptococcus neoformans, SLPBC0012854, 72 h, read-out: Minimum Inhibitory Conc. (MIC), 72 hr.): 1 µg/mL
MIC ([7]; Candida albicans, LH000664533, 24 h, read-out: Minimum Inhibitory Conc. (MIC), 24 hr.): 1 µg/mL
MIC ([7]; Candida albicans, LH000664533, 48 h, read-out: Minimum Inhibitory Conc. (MIC), 48 hr.): 1 µg/mL
MIC ([8]; JHCBC9951635, 24 h, read-out: Minimum Inhibitory Conc. (MIC), 24 hr., Torulopsis glabrata, 2nd pair of lines, read at 24 hr): 1 µg/mL
MIC ([8]; JHCBC9951635, 48 h, read-out: Minimum Inhibitory Conc. (MIC), 48 hr., Torulopsis glabrata, 2nd pair of lines, read at 48 hr): 2 µg/mL
Minimum Inhibitory Conc. (MIC), 24 hr. [8, 13]: 2 µg/mL

COC(=O)c1cc2cc(OCc3ccccc3)ccc2n1CCCCCCOC(=O)c1cccnc1 [Compound 0951]
Minimum Lethal Concentration (MLC), A [1]: 1 µg/mL
Minimum Lethal Concentration (MLC), C [2]: 1 µg/mL
Minimum Lethal Concentration (MLC), B [3]: 1 µg/mL
Minimum Lethal Concentration (MLC), G [4]: 4 µg/mL
Minimum Lethal Concentration (MLC), F [5]: 2 µg/mL
Minimum Lethal Concentration (MLC), H [6]: 4 µg/mL
Minimum Lethal Concentration (MLC), D [7]: 2 µg/mL
Minimum Lethal Concentration (MLC), E [8]: 2 µg/mL

OC(Cn1cncn1)(Cn1cncn1)c1ccc(F)cc1F [Fluconazole]
MIC ([1]; Candida tropicalis, ATCC750, 24 h, Candida tropicalis, 2nd pair of lines, read at 24 hr, isolate assigned by line order, read-out: Minimum Inhibitory Conc. (MIC), 24 hr.): 1 µg/mL (≈ 3.27 µM)
MIC ([1]; Candida tropicalis, ATCC750, 48 h, Candida tropicalis, 2nd pair of lines, read at 48 hr, isolate assigned by line order, read-out: Minimum Inhibitory Conc. (MIC), 48 hr.): 4 µg/mL (≈ 13.1 µM)
Minimum Inhibitory Conc. (MIC), 48 hr. [2, 10]: 2 µg/mL
MIC ([2]; KJP000531594, 24 h, 1st pair of lines, read at 24 hr, isolate not given, assigned by line order and MLC of Table 4B, read-out: Minimum Inhibitory Conc. (MIC), 24 hr.): 0.5 µg/mL (≈ 1.63 µM)
MIC ([2]; KJP000531594, 48 h, 1st pair of lines, read at 48 hr, isolate assigned by line order, read-out: Minimum Inhibitory Conc. (MIC), 48 hr.): 1 µg/mL (≈ 3.27 µM)
Minimum Inhibitory Conc. (MIC), 72 hr. [4, 11]: 64 µg/mL
MIC ([4]; Cryptococcus neoformans, 48 h, Cryptococcus neoformans, 1st pair of lines, read at 48 hr, isolate assigned by line order, read-out: Minimum Inhibitory Conc. (MIC), 48 hr.): > 64 µg/mL
MIC ([4]; Cryptococcus neoformans, 72 h, Cryptococcus neoformans, 1st pair of lines, read at 72 hr, isolate assigned by line order, read-out: Minimum Inhibitory Conc. (MIC), 72 hr.): > 64 µg/mL
MIC ([6]; Cryptococcus neoformans, SLPBC0012854, 48 h, Cryptococcus neoformans, 2nd pair of lines, read at 48 hr, isolate assigned by line order, read-out: Minimum Inhibitory Conc. (MIC), 48 hr.): 4 µg/mL (≈ 13.1 µM)
MIC ([6]; Cryptococcus neoformans, SLPBC0012854, 72 h, Cryptococcus neoformans, 2nd pair of lines, read at 72 hr, isolate assigned by line order, read-out: Minimum Inhibitory Conc. (MIC), 72 hr.): 4 µg/mL (≈ 13.1 µM)
MIC ([8]; JHCBC9951635, 24 h, Torulopsis glabrata, 2nd pair of lines, read at 24 hr, read-out: Minimum Inhibitory Conc. (MIC), 24 hr.): 2 µg/mL (≈ 6.53 µM)
MIC ([8]; JHCBC9951635, 48 h, Torulopsis glabrata, 2nd pair of lines, read at 48 hr, read-out: Minimum Inhibitory Conc. (MIC), 48 hr.): 8 µg/mL (≈ 26.1 µM)
Minimum Inhibitory Conc. (MIC), 48 hr. [8, 14]: 4 µg/mL
